Experimental data taken from patent US12522594B2, “2-heteroaryl-3-oxo-2,3-dihydropyridazine-4-carboxamides for the treatment of cancer” (Deutsches Krebsforschungszentrum, priority 2017, dated 2026).

What was measured:
[1] = target: T1, AHR (Homo sapiens, UniProt P35869); assay: In vitro assay 1: antagonism in human cell line (transactivation assay, U87 cells prestimulated with kynurenic acid, DRE firefly luciferase reporter); assay type: cell-based; parameters: host or cells: U87 glioblastoma cells, stably transfected with DRE firefly luciferase and renilla reporter constructs; settings: 150 uM kynurenic acid, 20 hours, read-out: Assay 1: AHR-luc Hum Antagonism IC50
T1 sequence (P35869 11-848): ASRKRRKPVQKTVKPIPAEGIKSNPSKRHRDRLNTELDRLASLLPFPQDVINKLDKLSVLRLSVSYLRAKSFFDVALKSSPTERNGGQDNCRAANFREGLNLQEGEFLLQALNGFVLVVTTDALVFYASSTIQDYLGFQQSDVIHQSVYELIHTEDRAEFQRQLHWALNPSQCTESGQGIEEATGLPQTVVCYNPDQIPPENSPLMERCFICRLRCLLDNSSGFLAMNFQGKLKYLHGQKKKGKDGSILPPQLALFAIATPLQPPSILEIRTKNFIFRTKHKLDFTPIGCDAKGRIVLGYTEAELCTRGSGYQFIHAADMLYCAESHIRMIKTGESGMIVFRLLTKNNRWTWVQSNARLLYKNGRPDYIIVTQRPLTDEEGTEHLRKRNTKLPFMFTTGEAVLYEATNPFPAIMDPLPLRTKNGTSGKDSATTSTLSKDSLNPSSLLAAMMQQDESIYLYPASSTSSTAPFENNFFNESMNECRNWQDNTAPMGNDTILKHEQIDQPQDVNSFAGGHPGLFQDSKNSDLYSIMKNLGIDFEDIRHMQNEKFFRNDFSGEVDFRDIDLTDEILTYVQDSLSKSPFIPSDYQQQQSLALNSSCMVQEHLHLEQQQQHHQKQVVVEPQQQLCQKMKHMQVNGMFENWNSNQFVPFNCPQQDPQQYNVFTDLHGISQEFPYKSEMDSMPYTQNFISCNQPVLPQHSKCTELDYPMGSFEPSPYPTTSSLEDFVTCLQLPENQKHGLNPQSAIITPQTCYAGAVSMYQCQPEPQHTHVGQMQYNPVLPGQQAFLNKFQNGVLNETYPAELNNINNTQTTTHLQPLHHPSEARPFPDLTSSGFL
How it was run: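 U87 glioblastoma cells with endogenous AHR, stably carrying a DRE-driven firefly luciferase reporter and a constitutive renilla reporter. Cells prestimulated with the AHR agonist kynurenic acid before compound addition; data normalized to positive and negative controls.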

[2] = target: T1, AHR; assay: In vitro assay 2: agonism in human cell line (transactivation assay, U87 cells, DRE firefly luciferase reporter); assay type: cell-based; parameters: host or cells: U87 glioblastoma cells, stably transfected with DRE firefly luciferase and renilla reporter constructs; settings: no kynurenic acid, 20 hours, read-out: Assay 2: AHR-luc Hum Agonism IC50
How it was run: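 U87 glioblastoma cells with endogenous AHR, stably carrying DRE-driven firefly luciferase and constitutive renilla reporters. 300 uM kynurenic acid served as positive activation control; data normalized to positive and negative controls.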

Structure (SMILES) | IC50 [1] | IC50 [2]
O=C(N[C@H](CO)C(F)(F)F)c1cc(-c2ccc(C(F)F)cc2)nn(-c2cccnc2)c1=O [Example 127, 6-[4-(Difluoromethyl)phenyl]-3-oxo-2-(pyridin-3-yl)-N-[(2R)-1,1,1-trifluoro-3-hydroxypropan-2-yl]-2,3-dihydropyridazine-4-carboxamide] | 4.17 nM | > 20000 nM
O=C(N[C@H]1CCC[C@H]1O)c1cc(-c2ccc(Cl)cc2)nn(-c2cncc(F)c2)c1=O [Example 129, 6-(4-Chlorophenyl)-2-(5-fluoropyridin-3-yl)-N-[(1S,2R)-2-hydroxycyclopentyl]-3-oxo-2,3-dihydropyridazine-4-carboxamide] | 5.53 nM | > 20000 nM
O=C(N[C@H]1CCC[C@@H]1O)c1cc(-c2ccc(OC(F)(F)F)cc2)nn(-c2cccnc2)c1=O [Example 132, N-[(1S,2S)-2-Hydroxycyclopentyl]-3-oxo-2-(pyridin-3-yl)-6-[4-(trifluoromethoxy)phenyl]-2,3-dihydropyridazine-4-carboxamide] | 6.88 nM | > 20000 nM
CC(C)(O)C(NC(=O)c1cc(-c2ccc(OC(F)(F)F)cc2)nn(-c2cccnc2)c1=O)C(F)(F)F (stereo not drawn) [Example 135, 3-Oxo-2-(pyridin-3-yl)-N-[1,1,1-trifluoro-3-hydroxy-3-methylbutan-2-yl]-6-[4-(trifluoromethoxy)phenyl]-2,3-dihydropyridazine-4-carboxamide] | 7.91 nM | > 20000 nM
O=C(NCC(O)C(F)(F)F)c1cc(-c2ccc(OC(F)(F)F)cc2)nn(-c2cccnc2)c1=O (stereo not drawn) [Example 146, 3-Oxo-2-(pyridin-3-yl)-N-[3,3,3-trifluoro-2-hydroxypropyl]-6-[4-(trifluoromethoxy)phenyl]-2,3-dihydropyridazine-4-carboxamide] | 10.3 nM | > 20000 nM
O=C(N[C@H](CO)C1CC1)c1cc(-c2ccc(C(F)F)cc2)nn(-c2cccnc2)c1=O [Example 150, N-[(1S)-1-Cyclopropyl-2-hydroxyethyl]-6-[4-(difluoromethyl)phenyl]-3-oxo-2-(pyridin-3-yl)-2,3-dihydropyridazine-4-carboxamide] | 19.9 nM | > 20000 nM
O=C(N[C@H]1CCC[C@@H]1O)c1cc(-c2ccc(C(F)F)nc2)nn(-c2cccnc2)c1=O [Example 165, 6-[6-(Difluoromethyl)pyridin-3-yl]-N-[(1S,2S)-2-hydroxycyclopentyl]-3-oxo-2-(pyridin-3-yl)-2,3-dihydropyridazine-4-carboxamide] | 209 nM | > 20000 nM
C[C@@H](CO)NC(=O)c1cc(-c2ccc(C(F)F)nc2)nn(-c2cccnc2)c1=O [Example 180, 6-[6-(Difluoromethyl)pyridin-3-yl]-N-[(2S)-1-hydroxypropan-2-yl]-3-oxo-2-(pyridin-3-yl)-2,3-dihydropyridazine-4-carboxamide] | 794 nM | > 20000 nM
O=C(NCC1(O)CCC1)c1cc(-c2ccc(C(F)(F)F)cc2)nn(-c2cnsc2)c1=O [Example 195, N-[(1-Hydroxycyclobutyl)methyl]-3-oxo-2-(1,2-thiazol-4-yl)-6-[4-(trifluoromethyl)phenyl]-2,3-dihydropyridazine-4-carboxamide] | 0.363 nM | > 20000 nM
C[C@H](NC(=O)c1cc(-c2ccc(C(F)(F)F)cc2)nn(-c2cnsc2)c1=O)C(C)(C)O [Example 196, N-[(2S)-3-Hydroxy-3-methylbutan-2-yl]-3-oxo-2-(1,2-thiazol-4-yl)-6-[4-(trifluoromethyl)phenyl]-2,3-dihydropyridazine-4-carboxamide] | 0.418 nM | > 20000 nM

Next, values leading:

IC50 [1] | IC50 [2] | Structure (SMILES)
5.05 nM | > 20000 nM | O=C(NC[C@H](O)C(F)(F)F)c1cc(-c2ccc(Cl)cc2)nn(-c2cncc(F)c2)c1=O [Example 128, 6-(4-Chlorophenyl)-2-(5-fluoropyridin-3-yl)-3-oxo-N-[(2S)-3,3,3-trifluoro-2-hydroxypropyl]-2,3-dihydropyridazine-4-carboxamide]
21.1 nM | > 20000 nM | C[C@@H](CO)NC(=O)c1cc(-c2ccc(C(F)F)cc2)nn(-c2cccnc2)c1=O [Example 151, 6-[4-(Difluoromethyl)phenyl]-N-[(2S)-1-hydroxypropan-2-yl]-3-oxo-2-(pyridin-3-yl)-2,3-dihydropyridazine-4-carboxamide]
134 nM | > 20000 nM | C[C@@H](CO)NC(=O)c1cc(-c2ccc(Cl)cc2F)nn(-c2cccnc2)c1=O [Example 163, 6-(4-Chloro-2-fluorophenyl)-N-[(2S)-1-hydroxypropan-2-yl]-3-oxo-2-(pyridin-3-yl)-2,3-dihydropyridazine-4-carboxamide]
157 nM | > 20000 nM | O=C(N[C@H]1CCCC[C@H]1O)c1cc(-c2ccc(Cl)cc2)nn(-c2ccnnc2)c1=O [Example 164, 3-(4-Chlorophenyl)-N-[(1S,2R)-2-hydroxycyclohexyl]-6-oxo-6H-1,4′-bipyridazine-5-carboxamide]
239 nM | > 20000 nM | O=C(N[C@H]1CCC[C@H]1O)c1cc(-c2ccc(Cl)cc2)nn(-c2ccnnc2)c1=O [Example 167, 3-(4-Chlorophenyl)-N-[(1S,2R)-2-hydroxycyclopentyl]-6-oxo-6H-1,4′-bipyridazine-5-carboxamide]
61.5 nM | > 20000 nM | O=C(N[C@H]1CCC[C@@H]1O)c1cc(-c2ccc(Cl)cc2)nn(-c2ccnnc2)c1=O [Example 174, 3-(4-Chlorophenyl)-N-[(1S,2S)-2-hydroxycyclopentyl]-6-oxo-6H-1,4′-bipyridazine-5-carboxamide]
465 nM | > 20000 nM | C[C@@H](CO)NC(=O)c1cc(-c2ccc(Cl)cc2)nn(-c2ccnnc2)c1=O [Example 177, 3-(4-Chlorophenyl)-N-[(2S)-1-hydroxypropan-2-yl]-6-oxo-6H-1,4′-bipyridazine-5-carboxamide]
594 nM | > 20000 nM | CC(C)(O)CNC(=O)c1cc(-c2ccc(Cl)cc2)nn(-c2ccnnc2)c1=O [Example 178, 3-(4-Chlorophenyl)-N-(2-hydroxy-2-methylpropyl)-6-oxo-6H-1,4′-bipyridazine-5-carboxamide]
736 nM | > 20000 nM | C[C@@H](CO)NC(=O)c1cc(-c2ccc(C#N)cc2)nn(-c2cccnc2)c1=O [Example 179, 6-(4-Cyanophenyl)-N-[(2S)-1-hydroxypropan-2-yl]-3-oxo-2-(pyridin-3-yl)-2,3-dihydropyridazine-4-carboxamide]
37.1 nM | > 20000 nM | CC(C)(O)C(NC(=O)c1cc(-c2ccc(Cl)cc2)nn(-c2cncnc2)c1=O)C(F)(F)F (stereo not drawn) [Example 185, 6-(4-Chlorophenyl)-3-oxo-2-(pyrimidin-5-yl)-N-(1,1,1-trifluoro-3-hydroxy-3-methylbutan-2-yl)-2,3-dihydropyridazine-4-carboxamide]
12.5 nM | > 20000 nM | O=C(NCC1(O)CC1)c1cc(-c2ccc(C(F)(F)F)cc2)nn(-c2cccnc2)c1=O [Example 188, N-[(1-Hydroxycyclopropyl)methyl]-3-oxo-2-(pyridin-3-yl)-6-[4-(trifluoromethyl)phenyl]-2,3-dihydropyridazine-4-carboxamide]
3.03 nM | > 20000 nM | O=C(NCC1(O)CCC1)c1cc(-c2ccc(C(F)(F)F)cc2)nn(-c2cccnc2)c1=O [Example 189, N-[(1-Hydroxycyclobutyl)methyl]-3-oxo-2-(pyridin-3-yl)-6-[4-(trifluoromethyl)phenyl]-2,3-dihydropyridazine-4-carboxamide]
65.6 nM | > 20000 nM | C[C@@H](CO)NC(=O)c1cc(-c2ccc(Cl)cc2)nn(-c2cn[nH]c2)c1=O [Example 190, (+)-6-(4-Chlorophenyl)-N-[(2S)-1-hydroxypropan-2-yl]-3-oxo-2-(1H-pyrazol-4-yl)-2,3-dihydropyridazine-4-carboxamide]
3.35 nM | > 20000 nM | C[C@@H](CO)NC(=O)c1cc(-c2ccc(N(C)C)cc2)nn(-c2cccnc2)c1=O [Example 191, 6-[4-(Dimethylamino)phenyl]-N-[(2S)-1-hydroxypropan-2-yl]-3-oxo-2-(pyridin-3-yl)-2,3-dihydropyridazine-4-carboxamide]
